# Data: patent US20260116868A1 (Arcus Biosciences, Inc., priority 2023, published 2026)
# Molecular target: T1, Cbl-b (Homo sapiens, UniProt Q13191)
# T1 construct: biotin (biotinylated protein)
# Test: Cbl-b probe displacement HTRF binding assay
# Settings: 0.4 nM Cbl-b, 150 nM BODIPY probe
# Method in brief: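 Compound competes with BODIPY probe (150 nM) for biotinylated Cbl-b (0.4 nM) in HEPES/NaCl/Triton/TCEP/BSA buffer; 60 min preincubation, 15 min with probe, room temperature. Tb-streptavidin HTRF read; % displacement vs DMSO and no-protein controls, IC50 from four-parameter fit.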
# T1 sequence (Q13191 whole entry, species assumed): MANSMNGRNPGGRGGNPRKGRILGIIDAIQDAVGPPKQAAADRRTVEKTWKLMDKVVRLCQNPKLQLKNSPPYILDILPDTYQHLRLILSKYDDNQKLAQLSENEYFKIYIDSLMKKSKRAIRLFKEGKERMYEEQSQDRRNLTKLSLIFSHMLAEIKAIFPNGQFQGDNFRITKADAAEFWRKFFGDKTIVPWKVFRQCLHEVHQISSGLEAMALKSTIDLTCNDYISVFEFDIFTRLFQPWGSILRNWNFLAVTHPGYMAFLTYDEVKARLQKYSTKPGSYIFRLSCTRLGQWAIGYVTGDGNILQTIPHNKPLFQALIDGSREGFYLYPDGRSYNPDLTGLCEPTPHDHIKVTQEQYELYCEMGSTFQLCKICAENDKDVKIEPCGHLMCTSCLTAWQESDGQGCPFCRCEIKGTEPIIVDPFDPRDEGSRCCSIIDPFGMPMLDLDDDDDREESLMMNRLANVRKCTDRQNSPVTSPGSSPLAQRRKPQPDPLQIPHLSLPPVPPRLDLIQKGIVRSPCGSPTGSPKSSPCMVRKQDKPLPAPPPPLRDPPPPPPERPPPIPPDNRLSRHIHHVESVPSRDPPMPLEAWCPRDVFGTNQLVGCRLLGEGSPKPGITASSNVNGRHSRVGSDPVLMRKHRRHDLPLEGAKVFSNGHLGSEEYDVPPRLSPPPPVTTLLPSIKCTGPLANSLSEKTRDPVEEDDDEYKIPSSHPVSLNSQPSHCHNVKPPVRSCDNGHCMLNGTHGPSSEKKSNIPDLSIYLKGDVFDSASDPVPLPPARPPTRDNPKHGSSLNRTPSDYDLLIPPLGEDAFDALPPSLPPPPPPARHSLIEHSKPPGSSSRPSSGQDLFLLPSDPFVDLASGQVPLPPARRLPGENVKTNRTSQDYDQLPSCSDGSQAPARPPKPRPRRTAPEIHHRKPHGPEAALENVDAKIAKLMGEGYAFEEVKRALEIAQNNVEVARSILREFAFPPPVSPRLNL
row,SMILES,IC50 [nM]
1,CC(C)Oc1cc(-c2c(F)cc(C#N)cc2C(=O)N2CC(F)(F)C2)cc(NC(=O)c2cc(CNC[C@@H]3CCCO3)cn(C)c2=O)n1 [Example 239],< 100
2,CC(C)Oc1cc(-c2ccc(OC(F)F)cc2C(=O)N2CC(F)C2)cc(NC(=O)c2cc(CN[C@@H](C)C3CCC3)cn(C)c2=O)n1 [Example 250],< 100
3,"CO[C@@H](C)CNCc1cc(C(=O)Nc2cc(-c3ccc(Cl)cc3C(=O)N(C)C)cc(C3CC3)n2)c(=O)n(C2CC2)c1 [Example 161, N-{4-[4-Chloro-2-(N,N-dimethylcarbamoyl)phenyl]-6-cyclopropyl-2-pyridyl}-1-cyclopropyl-5-{[(S)-2-methoxypropylamino]methyl}-2-oxo-1,2-dihydronicotinamide]",< 100
4,CC(C)CNCc1cc(C(=O)Nc2cc(-c3c(F)cc(Cl)cc3C(=O)N3CC(F)(F)C3)cc(NC(C)C)n2)c(=O)n(C2CC2)c1 [Example 201],< 100
5,"CO[C@@H](C)CNCc1cc(C(=O)Nc2cc(-c3ccc(C#N)cc3C(=O)N3CC(F)(F)C3)cc(OC(C)C)n2)c(=O)n(C)c1 [Example 117, N-(4-{4-cyano-2-[(3,3-difluoro-1-azetidinyl)carbonyl]phenyl}-6-isopropoxy-2-pyridyl)-5-{[(S)-2-methoxypropylamino]methyl}-1-methyl-2-oxo-1,2-dihydronicotinamide]",< 100
6,CC(C)Oc1cc(-c2ccc(OC(F)F)cc2C(=O)N2CC(F)(F)C2)cc(NC(=O)c2cc(CN[C@@H](C)C(C)C)cn(C)c2=O)n1 [Example 114],< 100
7,"CCOc1cc(-c2c(F)cc(C#N)cc2C(=O)N2CC(F)(F)C2)cc(NC(=O)c2cc(CN[C@@H](C)C3CC3)cn(C)c2=O)n1 [Example 119, N-[4-[4-cyano-2-(3,3-difluoroazetidine-1-carbonyl)-6-fluorophenyl]-6-ethoxypyridin-2-yl]-5-[[[(1S)-1-cyclopropylethyl]amino]methyl]-1-methyl-2-oxopyridine-3-carboxamide]",< 100
8,COCCNCc1cc(C(=O)Nc2cc(-c3ccc(Cl)cc3C(=O)N3CCC3)cc(C3CC3)n2)c(=O)n(C2CC2)c1 [Example 298],< 100
9,"O=C(Nc1cc(-c2c(F)cc(Cl)cc2C(=O)N2CC(F)(F)C2)cc(C2CC2)n1)c1cc(CNC[C@@H]2CCCO2)cn(C2CC2)c1=O [Example 145, N-(4-{4-chloro-2-[(3,3-difluoro-1-azetidinyl)carbonyl]-6-fluorophenyl}-6-cyclopropyl-2-pyridyl)-1-cyclopropyl-2-oxo-5-[({[(S)-perhydro-2-furyl]methyl}amino)methyl]-1,2-dihydronicotinamide]",< 100
10,Cn1cc(CNC[C@@H]2CCCO2)cc(C(=O)Nc2cc(-c3c(F)cc(C#N)cc3C(=O)N3CC(F)(F)C3)cc(C3CC3)n2)c1=O [Example 241],< 100
11,CCOc1cc(-c2ccc(C#N)cc2C(=O)N2CC(F)(F)C2)cc(NC(=O)c2cc(CN[C@@H](C)C3CCC3)cn(C3CC3)c2=O)n1 [Example 196],< 100
12,C[C@H](NCc1cc(C(=O)Nc2cc(-c3c(F)cc(C#N)cc3C(=O)N3CC(F)(F)C3)cc(C3CC3)n2)c(=O)n(C2CC2)c1)C1CC1 [Example 232],< 100
13,CCNc1cc(-c2ccc(Cl)cc2C(=O)N2CC(F)(F)C2)cc(NC(=O)c2cc(CNC[C@@H]3CCCO3)cn(C)c2=O)n1 [Example 182],< 100
14,CC(C)CNCc1cc(C(=O)Nc2cc(-c3c(F)cc(C#N)cc3C(=O)N3CC(F)(F)C3)cc(C3CC3)n2)c(=O)n(C2CC2)c1 [Example 230],< 100
15,CO[C@@H](C)CNCc1cc(C(=O)Nc2cc(-c3ccc(C#N)cc3C(=O)N3CC(F)(F)C3)cc(C3CC3)n2)c(=O)n(C)c1 [Example 178],< 100
16,CCOc1cc(-c2ccc(C#N)cc2C(=O)N2CC(F)(F)C2)cc(NC(=O)c2cc(CNCC(C)C)cn(C3CC3)c2=O)n1 [Example 202],< 100
17,"CC(C)CNCc1cc(C(=O)Nc2cc(-c3c(F)cc(C#N)cc3C(=O)N3CC(F)(F)C3)cc(OC(C)C)n2)c(=O)n(C2CC2)c1 [Example 128, N-(4-{4-cyano-2-[(3,3-difluoro-1-azetidinyl)carbonyl]-6-fluorophenyl}-6-isopropoxy-2-pyridyl)-1-cyclopropyl-5-[(isobutylamino)methyl]-2-oxo-1,2-dihydronicotinamide]",< 100

row,SMILES,IC50 [nM]
1,CC(C)Nc1cc(-c2ccc(OC(F)F)cc2C(=O)N2CC(F)C2)cc(NC(=O)c2cc(CNC[C@@H]3CCCO3)cn(C)c2=O)n1 [Example 299],< 100
2,CC(C)Nc1cc(-c2c(F)cc(Cl)cc2C(=O)N2CC(F)(F)C2)cc(NC(=O)c2cc(CN[C@@H](C)C3CC3)cn(C3CC3)c2=O)n1 [Example 204],< 100
3,CC(C)CNCc1cc(C(=O)Nc2cc(-c3c(F)cc(C#N)cc3C(=O)N3CC(F)(F)C3)cc(OC(C)C)n2)c(=O)n(C)c1 [Example 234],< 100
4,Cc1ccc(-c2cc(NC(=O)c3cc(CNC[C@@H]4CCCO4)cn(C4CC4)c3=O)nc(OCC(F)F)c2)c(C(=O)N2CC(F)(F)C2)c1 [Example 166],< 100
5,CO[C@@H](C)CNCc1cc(C(=O)Nc2cc(-c3ccc(OC(F)F)cc3C(=O)N3CC(F)C3)cc(OC(C)C)n2)c(=O)n(C)c1 [Example 263],< 100
6,C[C@H](NCc1cc(C(=O)Nc2cc(-c3cc(F)c(Cl)cc3C(=O)N3CC(F)(F)C3)cc(C3CC3)n2)c(=O)n(C2CC2)c1)C1CCC1 [Example 216],< 100
7,Cn1cc(CNCC2CC2)cc(C(=O)Nc2cc(-c3ccc(C#N)cc3C(=O)N3CC(F)(F)C3)cc(C3CC3)n2)c1=O [Example 192],< 100
8,COc1ccc(-c2cc(NC(=O)c3cc(CNC[C@H](C)OC)cn(C4CC4)c3=O)nc(OC(C)C)c2)c(C(=O)N2CC(F)C2)c1 [Example 261],< 100
9,CC(C)Nc1cc(-c2ccc(Cl)cc2C(=O)N2CC(F)(F)C2)cc(NC(=O)c2cc(CN[C@@H](C)C3CC3)cn(C3CC3)c2=O)n1 [Example 219],< 100
10,C[C@H](NCc1cc(C(=O)Nc2cc(-c3c(F)cc(C#N)cc3C(=O)N3CC(F)(F)C3)cc(C3CC3)n2)c(=O)n(C2CC2)c1)C1CCC1 [Example 218],< 100
11,COc1ccc(-c2cc(NC(=O)c3cc(CN[C@@H](C)C4CC4)cn(C4CC4)c3=O)nc(C3CC3)c2)c(C(=O)N2CC(F)C2)c1 [Example 291],< 100
12,CCn1cc(CNCC(C)C)cc(C(=O)Nc2cc(-c3ccc(C#N)cc3C(=O)N3CC(F)(F)C3)cc(C3CC3)n2)c1=O [Example 168],< 100
13,CCOc1cc(-c2c(F)cc(Cl)cc2C(=O)N2CC(F)(F)C2)cc(NC(=O)c2cc(CNC[C@@H]3CCCO3)cn(C3CC3)c2=O)n1 [Example 210],< 100
14,CO[C@@H](C)CNCc1cc(C(=O)Nc2cc(-c3ccc(C)cc3C(=O)N3CC(F)C3)cc(OC(C)C)n2)c(=O)n(C2CC2)c1 [Example 290],< 100
15,CO[C@@H](C)CNCc1cc(C(=O)Nc2cc(-c3ccc(C(F)F)cc3C(=O)N3CC(F)(F)C3)cc(C3CC3)n2)c(=O)n(C2CC2)c1 [Example 300],< 100
16,CC(C)Oc1cc(-c2c(F)cc(C#N)cc2C(=O)N2CC(F)(F)C2)cc(NC(=O)c2cc(CN[C@@H](C)C3CCC3)cn(C3CC3)c2=O)n1 [Example 126],< 100
17,CCOc1cc(-c2c(F)cc(Cl)cc2C(=O)N2CC(F)(F)C2)cc(NC(=O)c2cc(CN[C@@H](C)[C@H](C)OC)cn(C3CC3)c2=O)n1 [Example 203],< 100

# Other lines, results leading:
row,IC50 [nM],SMILES
1,< 100,O=C(Nc1cc(-c2ccc(Cl)cc2C(=O)N2CC(F)(F)C2)cc(C2CC2)n1)c1cc(CNCC2CCC2)cn(C2CC2)c1=O [Example 370]
2,< 100,CO[C@@H](C)CNCc1cc(C(=O)Nc2cc(-c3ccc(C#N)cc3C(=O)N3CC(C)(F)C3)cc(C3CC3)n2)c(=O)n(C2CC2)c1 [Example 394]
3,< 100,COCCNCc1cc(C(=O)Nc2cc(-c3c(Cl)cc(Cl)cc3C(=O)N3CC(F)(F)C3)cc(C3CC3)n2)c(=O)n(C2CC2)c1 [Example 405]
4,< 100,CC(C)CNCc1cc(C(=O)Nc2cc(-c3ccc(C#N)cc3C(=O)N3CC(F)(F)C3)cc(C3CC3)n2)c(=O)n(C2CC2)c1 [Example 356]
5,< 100,O=C(Nc1cc(-c2ccc(OC(F)F)cc2C(=O)N2CC(F)(F)C2)cc(C2CC2)n1)c1cc(CNC[C@@H]2COCCO2)cn(C2CC2)c1=O [Example 379]
6,< 100,Cn1cc(CNC[C@@H]2CCCO2)cc(C(=O)Nc2cc(-c3ccc(C#N)cc3C(=O)N3CC(F)(F)C3)cc(OCF)n2)c1=O [Example 350]
7,< 100,CO[C@@H](C)CNCc1cc(C(=O)Nc2cc(-c3ccc(F)cc3C(=O)N3CC(F)(F)C3)cc(C3CC3)n2)c(=O)n(C2CC2)c1 [Example 360]
8,< 100,C[C@H](NCc1cc(C(=O)Nc2cc(-c3ccc(C#N)cc3C(=O)N3CC(F)(F)C3)cc(C3CC3)n2)c(=O)n(C2CC2)c1)C1CCCO1 (some centres unmarked) [Example 376]
9,< 100,COc1ccc(-c2cc(NC(=O)c3cc(CN[C@@H](C)C4CC4)cn(C)c3=O)nc(C3CC3)c2)c(C(=O)N2CC(F)C2)c1 [Example 312]
10,< 100,CC(C)CNCc1cc(C(=O)Nc2cc(-c3ccc(OC(F)F)cc3C(=O)N3CC(F)(F)C3)cc(C3CC3)n2)c(=O)n(C2CC2)c1 [Example 322]
11,< 100,COc1ccc(-c2cc(NC(=O)c3cc(CNC[C@@H]4CCCO4)cn(C4CC4)c3=O)nc(OC(C)C)c2)c(C(=O)N2CC(F)(F)C2)c1 [Example 311]
12,< 100,C[C@@H]1C[C@H]1CNCc1cc(C(=O)Nc2cc(-c3ccc(Cl)cc3C(=O)N3CC(F)(F)C3)cc(C3CC3)n2)c(=O)n(C2CC2)c1 [Example 384]
13,< 100,COc1ccc(-c2cc(NC(=O)c3cc(CNCC(C)C)cn(C)c3=O)nc(OC(C)C)c2)c(C(=O)N2CC(F)C2)c1 [Example 317]
14,< 100,N#Cc1ccc(-c2cc(NC(=O)c3cc(CNCC4CCC4)cn(C4CC4)c3=O)nc(C3CC3)c2)c(C(=O)N2CC(F)(F)C2)c1 [Example 355]
15,< 100,CCOc1cc(-c2c(F)cc(C#N)cc2C(=O)N2CC(F)(F)C2)cc(NC(=O)c2cc(CNC[C@H](C)OC)cn(C3CC3)c2=O)n1 [Example 340]
16,< 100,CCOc1cc(-c2ccc(C#N)cc2C(=O)N2CC(F)(F)C2)cc(NC(=O)c2cc(CNCCOC)cn(C3CC3)c2=O)n1 [Example 345]
